Assay results as given in ChEMBL document CHEMBL1129977, “Antitumor agents. 172. Synthesis and biological evaluation of novel deacetamidothiocolchicin-7-ols and ester analogs as antitubulin agents” (J Med Chem, 1997).

Assays:
Tubulin = assay: Inhibition of Tubulin polymerization after 20 minutes of administration at 30 degree Centigrade; type: functional, organism-based
CA46 = assay: Inhibits the growth of the human Burkitt lymphoma CA46 cell; type: functional, cell-based
[1] = biological target: Tubulin alpha chain (Sus scrofa) (UniProt P02550); conditions: at 5 µM
Tubulin alpha chain (Sus scrofa), sequence (P02550 whole entry, looked up): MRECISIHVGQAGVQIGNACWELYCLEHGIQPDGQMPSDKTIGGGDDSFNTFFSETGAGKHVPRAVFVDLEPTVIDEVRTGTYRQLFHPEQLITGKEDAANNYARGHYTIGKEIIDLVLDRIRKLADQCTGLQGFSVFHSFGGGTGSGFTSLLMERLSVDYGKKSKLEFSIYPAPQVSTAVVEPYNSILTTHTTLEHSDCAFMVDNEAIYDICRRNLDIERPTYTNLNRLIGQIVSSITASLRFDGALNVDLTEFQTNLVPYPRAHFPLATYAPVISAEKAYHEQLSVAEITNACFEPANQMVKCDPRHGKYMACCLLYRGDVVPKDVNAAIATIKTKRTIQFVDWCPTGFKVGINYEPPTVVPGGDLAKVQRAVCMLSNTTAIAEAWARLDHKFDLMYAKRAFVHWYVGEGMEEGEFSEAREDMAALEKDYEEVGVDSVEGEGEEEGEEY

[2] = biological target: Tubulin alpha chain (Sus scrofa) (UniProt P02550); assay: Binding affinity of [3H]- colchicine (5.0 uM) to tubulin (1.0 uM, 0.1 mg/mL) was evaluated at concentration of 50 uM

SMILES | IC50 (Tubulin) | inhibition [1] | inhibition [2] | IC50 (CA46)
CCCC(=O)OC1CCc2cc(OC)c(OC)c(OC)c2-c2ccc(SC)c(=O)cc21 (centres undefined) | 1500 nM |  |  | 
CCCC(=O)O[C@H]1CCc2cc(OC)c(OC)c(OC)c2-c2ccc(SC)c(=O)cc21 | 850 nM | 66% |  | 29000 nM
COc1cc2c(c(OC)c1OC)-c1ccc(SC)c(=O)cc1[C@H](OC(C)=O)CC2 |  | 11% | 74% | 40000 nM
COc1cc2c(c(OC)c1OC)-c1ccc(SC)c(=O)cc1[C@@H](O)CC2 |  | 85% |  | 2800 nM
COc1cc2c(c(OC)c1OC)-c1ccc(SC)c(=O)cc1C(=O)CC2 [THIOCOLCHICONE] | 760 nM | 70% |  | 18000 nM
COc1cc2c(c(OC)c1OC)-c1ccc(SC)c(=O)cc1C(Br)CC2 (centres undefined) | 1100 nM |  |  | 
COc1cc2c(c(OC)c1OC)-c1ccc(SC)c(=O)cc1[C@@H](OC(=O)C13CCC(C)(C(=O)O1)C3(C)C)CC2 (some centres undefined) | 1400 nM |  |  | 
COc1cc2c(c(OC)c1OC)-c1ccc(SC)c(=O)cc1[C@H](O)CC2 |  | 16% | 73% | 
COc1cc2c(c(OC)c1OC)-c1ccc(SC)c(=O)cc1[C@H](OC(=O)C13CCC(C)(C(=O)O1)C3(C)C)CC2 (some centres undefined) | 17000 nM |  |  | 

Continued, in another order:

IC50 (Tubulin) | inhibition [1] | inhibition [2] | SMILES | IC50 (CA46)
1100 nM |  |  | COc1cc2c(c(OC)c1OC)-c1ccc(SC)c(=O)cc1C(OC(=O)c1ccncc1)CC2 (centres undefined) [listing 1 of 2 here] | 
970 nM |  |  | COc1cc2c(c(OC)c1OC)-c1ccc(SC)c(=O)cc1C(OC(=O)c1ccncc1)CC2 (centres undefined) [listing 2 of 2 here] | 
 | 79% |  | COc1cc2c(c(OC)c1OC)-c1ccc(SC)c(=O)cc1[C@@H](OC(C)=O)CC2 | 3400 nM
880 nM |  |  | COc1cc2c(c(OC)c1OC)-c1ccc(SC)c(=O)cc1C(OC(=O)c1cccnc1)CC2 (centres undefined) | 
1400 nM |  |  | COc1cc2c(c(OC)c1OC)-c1ccc(SC)c(=O)cc1C(OC(=O)c1ccccc1)CC2 (centres undefined) | 
760 nM | 65% |  | COc1cc2c(c(OC)c1OC)-c1ccc(SC)c(=O)cc1[C@@H](OC(=O)c1cccnc1)CC2 | 27000 nM
560 nM | 69% |  | COc1cc2c(c(OC)c1OC)-c1ccc(SC)c(=O)cc1[C@@H](OC(=O)c1ccncc1)CC2 | 2800 nM
